“And” between values parts separate entries of the source, which are not always exact repeats. Equal entries are not always repeated.
How the values were obtained:
[1] = molecular target: Histamine H3 receptor (Cavia porcellus, UniProt Q9JI35)
[2] = molecular target: Histamine H1 receptor (Homo sapiens, UniProt P35367)
[3] = molecular target: Hrh3 protein (Rattus norvegicus, UniProt Q5PPG3)
[4] = molecular target: Histamine receptor H3 (Canis lupus familiaris, UniProt Q865E3)
[5] = molecular target: Histamine H4 receptor (Homo sapiens, UniProt Q9H3N8)
[6] = molecular target: Histamine H2 receptor (Homo sapiens, UniProt P25021)
Sequence of Histamine H2 receptor (P25021 whole entry): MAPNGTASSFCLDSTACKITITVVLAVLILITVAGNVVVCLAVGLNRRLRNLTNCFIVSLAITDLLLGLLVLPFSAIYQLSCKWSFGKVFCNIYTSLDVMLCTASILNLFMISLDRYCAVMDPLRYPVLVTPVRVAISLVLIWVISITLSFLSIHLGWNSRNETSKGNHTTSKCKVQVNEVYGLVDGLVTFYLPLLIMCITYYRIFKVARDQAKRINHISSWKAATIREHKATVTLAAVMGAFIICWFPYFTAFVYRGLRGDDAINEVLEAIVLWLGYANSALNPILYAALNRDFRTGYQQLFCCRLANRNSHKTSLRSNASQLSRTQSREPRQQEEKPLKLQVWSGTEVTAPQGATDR

[7] = molecular target: T1, Alpha-2A adrenergic receptor (Homo sapiens, UniProt P08913)
T1 sequence (P08913 whole entry): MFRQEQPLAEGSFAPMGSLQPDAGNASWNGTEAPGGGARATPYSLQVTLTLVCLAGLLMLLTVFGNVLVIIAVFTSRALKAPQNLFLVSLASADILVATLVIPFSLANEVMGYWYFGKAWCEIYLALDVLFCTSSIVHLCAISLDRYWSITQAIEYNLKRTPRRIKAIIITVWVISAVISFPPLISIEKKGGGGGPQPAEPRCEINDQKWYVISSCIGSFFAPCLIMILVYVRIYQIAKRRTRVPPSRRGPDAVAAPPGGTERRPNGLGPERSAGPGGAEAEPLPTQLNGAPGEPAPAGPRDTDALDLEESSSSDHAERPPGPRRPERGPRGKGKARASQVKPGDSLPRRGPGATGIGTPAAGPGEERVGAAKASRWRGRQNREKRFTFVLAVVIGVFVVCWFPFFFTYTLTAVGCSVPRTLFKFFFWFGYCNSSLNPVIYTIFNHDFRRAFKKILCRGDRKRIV

[8] = molecular target: T2, 5-hydroxytryptamine receptor 3A (Rattus norvegicus, UniProt P35563)
T2 sequence (P35563 whole entry): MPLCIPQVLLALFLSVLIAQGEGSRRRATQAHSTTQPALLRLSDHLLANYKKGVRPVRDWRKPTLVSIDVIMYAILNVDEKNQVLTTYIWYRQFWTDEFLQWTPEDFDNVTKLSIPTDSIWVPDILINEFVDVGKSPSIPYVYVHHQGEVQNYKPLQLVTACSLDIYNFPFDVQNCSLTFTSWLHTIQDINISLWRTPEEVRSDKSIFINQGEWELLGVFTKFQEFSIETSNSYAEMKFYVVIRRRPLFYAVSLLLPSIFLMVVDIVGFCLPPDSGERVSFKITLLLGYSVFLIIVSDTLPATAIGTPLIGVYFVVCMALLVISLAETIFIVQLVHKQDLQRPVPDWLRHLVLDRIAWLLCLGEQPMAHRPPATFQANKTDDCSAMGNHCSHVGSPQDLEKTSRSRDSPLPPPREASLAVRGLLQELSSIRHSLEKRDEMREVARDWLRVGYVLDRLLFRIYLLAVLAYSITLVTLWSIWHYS

[9] = molecular target: T3, Alpha-2C adrenergic receptor (Homo sapiens, UniProt P18825)
T3 sequence (P18825 whole entry): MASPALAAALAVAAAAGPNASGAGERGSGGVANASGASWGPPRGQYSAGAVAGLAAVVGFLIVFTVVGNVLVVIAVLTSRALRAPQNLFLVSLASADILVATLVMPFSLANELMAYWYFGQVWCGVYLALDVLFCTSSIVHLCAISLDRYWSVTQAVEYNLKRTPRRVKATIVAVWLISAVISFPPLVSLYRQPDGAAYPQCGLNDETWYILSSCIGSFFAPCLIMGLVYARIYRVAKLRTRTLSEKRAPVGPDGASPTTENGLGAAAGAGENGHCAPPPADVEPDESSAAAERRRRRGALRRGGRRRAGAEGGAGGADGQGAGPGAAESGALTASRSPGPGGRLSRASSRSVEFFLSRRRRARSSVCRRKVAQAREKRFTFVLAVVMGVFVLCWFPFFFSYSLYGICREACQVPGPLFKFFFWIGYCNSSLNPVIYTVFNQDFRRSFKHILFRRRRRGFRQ

[10] = molecular target: Histamine H3 receptor (Homo sapiens, UniProt Q9Y5N1)
Sequence of Histamine H3 receptor (Homo sapiens, UniProt Q9Y5N1) (Q9Y5N1 whole entry): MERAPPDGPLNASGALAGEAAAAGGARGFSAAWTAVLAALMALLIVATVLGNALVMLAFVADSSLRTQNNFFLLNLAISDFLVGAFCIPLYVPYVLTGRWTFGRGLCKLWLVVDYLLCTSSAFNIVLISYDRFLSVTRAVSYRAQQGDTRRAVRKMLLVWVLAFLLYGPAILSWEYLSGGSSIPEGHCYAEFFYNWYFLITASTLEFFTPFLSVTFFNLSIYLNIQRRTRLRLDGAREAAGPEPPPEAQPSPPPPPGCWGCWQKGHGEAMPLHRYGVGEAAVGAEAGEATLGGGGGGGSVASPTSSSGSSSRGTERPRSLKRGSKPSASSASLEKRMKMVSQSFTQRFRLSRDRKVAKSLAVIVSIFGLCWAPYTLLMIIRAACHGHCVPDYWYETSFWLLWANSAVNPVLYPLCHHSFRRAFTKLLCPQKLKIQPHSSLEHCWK

Sequence of Hrh3 protein (Q5PPG3 whole entry): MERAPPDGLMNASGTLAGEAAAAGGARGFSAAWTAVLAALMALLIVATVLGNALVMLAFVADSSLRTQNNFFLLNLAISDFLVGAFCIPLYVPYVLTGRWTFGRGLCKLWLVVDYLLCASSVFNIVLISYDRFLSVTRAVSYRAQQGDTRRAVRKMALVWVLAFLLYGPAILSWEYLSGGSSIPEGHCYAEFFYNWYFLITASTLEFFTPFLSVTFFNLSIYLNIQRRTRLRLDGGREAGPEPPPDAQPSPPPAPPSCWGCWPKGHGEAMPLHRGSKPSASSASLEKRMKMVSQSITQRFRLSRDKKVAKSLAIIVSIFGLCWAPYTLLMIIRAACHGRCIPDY
Sequence of Histamine receptor H3 (Q865E3 whole entry): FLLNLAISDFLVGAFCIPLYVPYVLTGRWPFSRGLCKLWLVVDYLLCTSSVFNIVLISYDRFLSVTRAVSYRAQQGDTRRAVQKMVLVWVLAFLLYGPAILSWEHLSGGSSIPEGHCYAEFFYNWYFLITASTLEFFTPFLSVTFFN
Sequence of Histamine H1 receptor (P35367 whole entry): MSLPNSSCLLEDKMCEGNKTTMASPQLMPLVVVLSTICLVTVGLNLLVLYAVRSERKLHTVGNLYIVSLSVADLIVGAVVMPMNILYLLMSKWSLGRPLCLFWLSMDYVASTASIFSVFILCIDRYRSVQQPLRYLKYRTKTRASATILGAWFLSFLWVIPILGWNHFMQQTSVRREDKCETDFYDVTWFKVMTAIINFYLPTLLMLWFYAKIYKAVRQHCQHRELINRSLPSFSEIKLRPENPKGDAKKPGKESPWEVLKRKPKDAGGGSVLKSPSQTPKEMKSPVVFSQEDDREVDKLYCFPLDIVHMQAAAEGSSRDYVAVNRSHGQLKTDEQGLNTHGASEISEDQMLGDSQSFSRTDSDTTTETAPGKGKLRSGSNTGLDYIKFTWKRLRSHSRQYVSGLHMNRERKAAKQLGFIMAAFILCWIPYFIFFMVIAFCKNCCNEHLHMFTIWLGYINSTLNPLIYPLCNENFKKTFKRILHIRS
Sequence of Histamine H3 receptor (Cavia porcellus, UniProt Q9JI35) (Q9JI35 whole entry): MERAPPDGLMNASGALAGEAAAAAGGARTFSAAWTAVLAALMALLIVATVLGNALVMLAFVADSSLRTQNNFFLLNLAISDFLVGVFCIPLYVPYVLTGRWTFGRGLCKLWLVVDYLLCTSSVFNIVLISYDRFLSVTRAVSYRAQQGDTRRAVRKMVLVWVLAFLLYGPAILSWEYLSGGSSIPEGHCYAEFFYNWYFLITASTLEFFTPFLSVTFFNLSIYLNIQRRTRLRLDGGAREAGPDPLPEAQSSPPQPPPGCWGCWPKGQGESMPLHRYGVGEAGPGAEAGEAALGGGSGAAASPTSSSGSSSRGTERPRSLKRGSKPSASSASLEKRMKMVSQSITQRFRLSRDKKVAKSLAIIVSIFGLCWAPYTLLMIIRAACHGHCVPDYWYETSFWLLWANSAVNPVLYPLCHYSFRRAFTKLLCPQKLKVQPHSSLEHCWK

Ki [1] [nM]	Ki [2] [µM]	Ki [3]	Ki [4] [nM]	Ki [5] [nM]	Ki [6] [µM]	Ki [7] [nM]	Ki [10]	SMILES	Ki [8] [nM]	Ki [9] [nM]
17.4	> 10	2.51 nM and 1.26 nM	46.8	> 10000	> 10	> 10000	759 nM and 813 nM	CCn1c(=O)[nH]c(=O)c2conc21 [A-304121]	–	2880
2.4	3.98	0.71 nM and 0.72 nM	4.27	> 10000	> 10	> 10000	–	C[C@@H](NC(=O)c1ccco1)C(=O)N1CCN(CCCOc2ccc(C(=O)C3CC3)cc2)CC1	> 10000	2400

Further lines, the molecule ahead of its results:

SMILES	Ki [1] [nM]	Ki [2] [µM]	Ki [3]	Ki [4] [nM]	Ki [5] [nM]	Ki [6] [µM]	Ki [7] [nM]	Ki [10]	Ki [8] [nM]	Ki [9] [nM]
O=C(c1ccc(OCCCc2cnc[nH]2)cc1)C1CC1	1.74	> 10	0.51 nM and 0.63 nM	5.75	1860	> 10	42.7	–	302	–
NC(=NCc1ccc(Cl)cc1)SCCCc1cnc[nH]1 [VUF 9153]	0.22	6.31	–	0.08	41.7	2.51	17.4	–	7.41	15.9
S=C(NC1CCCCC1)N1CCC(c2cnc[nH]2)CC1	4.57	> 10	3.63 nM and 7.08 nM	6.76	–	> 10	126	–	2290	347

— BindingDB's records for doi:10.1124/jpet.102.047183 (Abbott Laboratories, 2003)
